These results are taken from patent US20190133930A1, “Methods of Anesthetizing Nerve Tissue in the Trigeminal Nerve Pathway and Medical Uses Thereof” (Apollonia, LLC, priority 2014, published 2019).

Structures are written as SMILES. Counter-ions that a name gives are not always drawn.

What all share (format): in vitro ADME
A short description of series [1]: MatTek EpiAirway cell monolayer permeability of local anesthetics after excipient pre-treatment. The note with it: human, pH 6, EpiAirway, 10 mM test article, donor pH 6.0, 37° C., 0.5 hr; excipient: none.
Assay in series [2]: as above
The note with it: human, pH 6, EpiAirway, 10 mM test article, donor pH 6.0, 37° C., 0.5 hr. As for the experimental part: The EpiAirway™ cell line is derived from normal human respiratory airway cells and models the mucosal tissue in the nasal cavity's respiratory airway, the main site of drug absorption following intranasal administration.
EpiAirway™ tissues were treated with the excipients (0.5% sodium caprate, 0.5% sodium deoxycholate, 0.5% polyoxyethylene 9 lauryl ether, and 0.5% lysophosphatidylcholine) for 20 min. The excipients were then washed off the EpiAirway™ tissues. […] The receiver wells contained standard transport buffer. The fluorescent marker Lucifer Yellow and atenolol (10 μM) were also included to monitor monolayer integrity at the end of the assay. The plates were incubated at 37° C. for 30 min. An aliquot of the receiver chamber was removed for analysis.
At the end of the incubation period, the donor plate was removed from the receiver plate. The donor and receiver samples were analyzed and quantified by LC-MS/MS (propranolol used as internal LC-MS standard).
To verify the monolayer integrity, aliquots of the cell buffers were analyzed by fluorescence and LC-MS/MS to determine the transport of the impermeable dye Lucifer Yellow and atenolol, respectively.
(§1) Data are expressed as permeability (Papp): Papp=(dQ/dt)/C0A
(§2) Where dQ/dt is the rate of permeation, C0 is the initial concentration of test agent, and A is the area of the monolayer.
For mass spectroscopy method development, the signal was optimized for each compound by electrospray ionization (ESI) in positive ionization mode. An MS2 scan was used to optimize the precursor ion mass, and an SIM scan was used to optimize the fragmenter voltage. Product ion analysis was used to identify the best fragment and collision energy for analysis.
Following MRM method optimization, a test injection was performed and an ionization ranking was assigned indicating the compound's ease of ionization.
Samples were analyzed by LC/MS/MS using an Agilent 6410 mass spectrometer coupled with an Agilent 1200 HPLC and a CTC PAL chilled autosampler, all controlled by MassHunter software (Agilent). After separation on a C18 reverse phase HPLC column (Agilent Zorbax StableBond 3.5 um, 2.1×30 mm) using an acetonitrile-water gradient, peaks were analyzed by mass spectrometry using ESI ionization in MRM mode. Diclofenac was utilized as an analytical internal standard (IS).

Series [3] is described as follows: Caco-2 cell monolayer apical to basolateral permeability of local anesthetic after excipient pre-treatment. As to conditions: human, Caco-2, pH 6, Caco-2, A→B, 10 mM Tetracaine HCl, apical pH 6.0, 0.5 hr. As for the experimental part: (§3) A first experiment was performed to test the ability of a mucosal absorption enhancer to promote transport of a local anesthetic agent across a mucosal epithelial cell monolayer. In this experiment, the Caco-2 cell line (an intestinal mucosal cell line) was grown and maintained at a pH of 6.0 for the length of time sufficient to establish tight junctions between the cells in the monolayer. After formation of the monolayer, sodium caprate was administered to the apical side of the Caco-2 cell monolayer at a concentration depending on the given test sample. After 20 minutes, the sodium caprate was washed off of the monolayer. Tetracaine hydrochloride was then administered to the apical side of the Caco-2 cell monolayer at a concentration of 10 mM. An additional test sample including tetracaine but lacking sodium caprate was also administered to the apical side of a separate Caco-2 cell monolayer as a control. The assay duration was 30 minutes. The apical to basolateral permeability rate coefficient of tetracaine across the Caco-2 cell monolayer was determined by LC/MS/MS for each test composition. The permeability rate coefficient (Papp) was based on the percent of the drug that is transported across the epithelial monolayer as a function of time and surface area of the monolayer. Drug permeability across the Caco-2 cell monolayers is a well-known model of transmucosal drug absorption in humans.
(§4) Caco-2 cells grown in tissue culture flasks were trypsinized, suspended in medium, and the suspensions were applied to wells of a Millipore 96 well Caco-2 plate. The cells were allowed to grow and differentiate for three weeks, feeding at 2-day intervals.
(§5) The Caco-2 cells were treated with the excipient (sodium caprate) for 20 minutes at concentrations of 0.2%, 0.5%, 1.0%, and 2.0%. The excipient was then washed off of the Caco-2 cell monolayer. For Apical to Basolateral (A→B) permeability, the test agent (10 mM Tetracaine HCl) was added to the apical (A) side and amount of permeation was determined on the basolateral (B) side. The A-side buffer contained 100 μM Lucifer Yellow (LY) dye and 10 μM Atenolol, in Transport Buffer (1.98 g/L glucose in 10 mM HEPES, 1× Hank's Balanced Salt Solution without Mg2+ and Ca2+) pH 6.0 for test articles. The B-side buffer was standard Transport Buffer, pH 7.4. Caco-2 cells were incubated with these buffers for 0.5 hr, and the receiver side buffer was removed for analysis by LC/MS/MS (propranolol used as internal LC/MS standard).
(§6) To verify that the Caco-2 cell monolayers were properly formed (and remained intact during the assay), aliquots of the cell buffers were analyzed by fluorescence and LC/MS/MS to determine the transport of the impermeable dye Lucifer Yellow and atenolol, respectively. Any deviations from control values are reported.
as §1, §2
(§7) For analytical method development, the analyte signal was optimized for each compound by ESI positive or negative ionization mode. An MS2 scan or an SIM scan was used to optimize the fragmenter voltage and a product ion analysis was used to identify the best fragment for analysis, and the collision energy was optimized using a product ion or MRM scan. An ionization ranking was assigned indicating the compound's ease of ionization.
(§8) Samples were analyzed by LC/MS/MS using an Agilent 6410 mass spectrometer coupled with an Agilent 1200 HPLC and a CTC PAL chilled autosampler, all controlled by MassHunter software (Agilent). After separation on a C18 reverse phase HPLC column (Agilent Zorbax StableBond 3.5 μm, 2.1×30 mm) using an acetonitrile-water gradient system, peaks were analyzed by mass spectrometry (MS) using ESI ionization in MRM mode.

For a further series, the system named is Caco-2 cell monolayer. Described as above. As to conditions: Caco-2; sodium caprate 0.2-2.0% versus no excipient; dose dependent. How it is done: as §3, §4, §5, §6, §1, §2, §7, §8
Where [4] appears, read: 20 min pre-treatment with 0.5% Lysophosphatidylcholine.
[5] abbreviates: 20 min pre-treatment with 0.5% Polyoxyethylene 9 Lauryl Ether.
The mark [6] stands for this setting: 20 min pre-treatment with 0.5% Sodium Caprate.
Where [7] appears, read: 20 min pre-treatment with 0.5% Sodium Deoxycholate.

For the molecule `CCCCN1CCCCC1C(=O)Nc1c(C)cccc1C` (stereo not shown) [Bupivacaine, Bupivacaine HCl], the Papp A→B at 30 min, 10 mM in series [1] stood at 19.2 ×10⁻⁶ cm/s; in series [2] (setting [4]), 173 ×10⁻⁶ cm/s; in series [2] (setting [5]) it was 189 ×10⁻⁶ cm/s; in series [2] (setting [6]), 116 ×10⁻⁶ cm/s; in series [2] (setting [7]), 218 ×10⁻⁶ cm/s.
`CCCCNc1ccc(C(=O)OCCN(C)C)cc1` [Tetracaine, Tetracaine HCl]: the Papp A→B at 30 min, 10 mM in series [1] came out at 10.8 ×10⁻⁶ cm/s; in series [2] (setting [4]), 71.6 ×10⁻⁶ cm/s; in series [2] (setting [5]), 126 ×10⁻⁶ cm/s; in series [2] (setting [6]) it was 56.8 ×10⁻⁶ cm/s; in series [2] (setting [7]) it was 155 ×10⁻⁶ cm/s. Besides, the Papp A→B at 0.5 hr, 10 mM in series [3] (20 min pre-treatment with 0.2% Sodium Caprate) worked out at 32.2 ×10⁻⁶ cm/s; in series [3] (setting [6]), 55.9 ×10⁻⁶ cm/s; in series [3] (20 min pre-treatment with 1.0% Sodium Caprate), 54.8 ×10⁻⁶ cm/s; in series [3] (20 min pre-treatment with 2.0% Sodium Caprate) it was 139 ×10⁻⁶ cm/s; in series [3] (excipient: None), 17.7 ×10⁻⁶ cm/s. Also, in the series with Caco-2 cell monolayer, the “effect of sodium caprate on permeability across a mucosal epithelial cell monolayer” value was “significantly improved the permeability”.

The Papp A→B is the apparent permeability from the apical to the basolateral side of a cell layer.
